The results in this text go back to patent US9974785B2, “Aromatic heterocyclic derivatives and pharmaceutical applications thereof” (SUNSHINE LAKE PHARMA CO., LTD., priority 2014, dated 2018).

A short description of data set [1]: Stability in human liver microsomes. The data set is classed as in vitro ADME. Conditions: for half-life at 1 μM / CLint scaled at 1 μM: liver microsomes, human liver microsome 0.5 mg/mL, 1 μM compound, 37° C., pH 7.4; for CLint scaled at 1 μM: read-out: Intrinsic clearance; for degradation in human liver microsomes in vitro: in 60 minutes. As for the experimental part: (§1) Example C: Evaluation of the Stability of the Compounds of the Invention in Rat and Human Liver Microsomes
(§2) The compound of the invention and rat liver microsome or human liver microsome were placed in 0.1 M potassium phosphate buffer (containing 1.0 mM EDTA, pH=7.4) at 37° C., and the mixture was incubated at 37° C. The concentrations of the compound at different incubation time points were determined, and the half-life of the compound was calculated by curve plotted based on the relative contents of the compound and the corresponding incubation times by using GraphPad Prism 5.01. Then the intrinsic clearance was calculated.
(§3) The peak area ratio of sample to internal standard was analyzed by the LC/MS/MS system. The content of the compound at 0 min was 100%, and the relative contents of the compound at different time points were calculated. The half-life of the compound was calculated by curve plotted based on the relative contents of the compound and the corresponding incubation times, and the intrinsic clearance was calculated.

Data set [2] is described as follows: Pharmacokinetic evaluation after intravenous or gavage administration to dogs. The data set is classed as in vivo, Beagle dogs. Conditions: for AUC(0-inf) / AUC(0-t) / Cmax / MRT inf / Tmax / clearance / half-life / Vd: beagle, dog, plasma; for Vd: read-out: Vss. How it is done: Example B: Pharmacokinetic Evaluation after Administering a Certain Amount of the Compounds of the Invention Intravenously or by Gavage to Dogs and Monkeys
In vivo pharmacokinetic assays in dogs and cynomolgus monkeys of the compounds disclosed herein were performed by the following steps.
Experiments were divided into two groups, one group was administered through intravenous drug delivery, and the other group was administered by gavage. The compounds disclosed herein were administered in form of a saline solution containing 5% DMSO, 5% Kolliphor HS 15, 2% (2% HCl) and 88% Saline, or the solution containing 10% DMSO, 10% Kolliphor HS 15 and 80% physiological saline. For intravenous administration, the animals were administered with a dose of 1 mg/kg, and 0.3 mL of vein blood was collected at the time points of 0.083, 0.25, 0.5, 1.0, 2.0, 4.0, 6.0, 8.0 and 24 h after drug administration (the time point of drug administration was set as 0 h), then each blood sample was processed to separate plasma by centrifugation at 3000 rpm or 4000 rpm for 10 minutes, and plasma was collected and stored at −20° C. or −70° C. until LC/MS/MS analysis described above. For gavage administration, the animals were administered with a dose of 2.5 mg/kg or 5 mg/kg, and 0.3 mL of vein blood was collected at the time points of 0.25, 0.5, 1.0, 2.0, 4.0, 6.0, 8.0 and 24 h after drug administration (the time point of drug administration was set as 0 h), then each blood sample was processed to separate plasma by centrifugation at 3000 rpm or 4000 rpm for 10 minutes, and plasma was collected and stored at −20° C. or −70° C. until LC/MS/MS analysis described above.
The above plasma was analyzed by the LC/MS/MS system.

Data set [3] is described as follows: Stability in rat liver microsomes. The data set is classed as in vitro ADME. Conditions: rat liver microsome 0.5 mg/mL, 1 μM compound, 37° C.; for half-life at 1 μM: pH 7.4; for CLint scaled at 1 μM: pH 7.4, read-out: Intrinsic clearance. As for the experimental part:
as §1, §2, §3
A general note: Liver microsomes are a subcellular fraction often used to study metabolism.

A further data set deals with human 5-HT6 receptor (Homo sapiens (Human), UniProt P50406). Nature of the data set: Radioligand binding assay, human 5-HT6 receptor expressed in CHO cell. Conditions: 2 nM [3H]LSD. How it is done: Example A: The Binding Affinities of the Compounds of this Invention to Human 5-HT6 Receptor Expressed in CHO Cell were Evaluated by Radioligand Binding Assay as Follows
32 μg membrane proteins of CHO cell expressing human 5-HT6 receptor, 2 nM of radioactive marker [3H]LSD, a compound of the present invention having different test concentrations, 100 μM 5-HT (5-HT was used to eliminate nonspecific binding sites) and a buffer solution were mixed uniformly. Then the resulting mixture was incubated at 37° C. for 120 min, in which the buffer solution comprised 50 mM Tris-HCl (pH 7.4), 10 mM MgCl2, 0.5 mM EDTA, 10 μM pargyline and 20 mg/L protease inhibitor.
After incubation, the resulting mixture was filtered by a fiberglass filter (GF/B, Packard) in vacuo, and the filter membrane of the fiberglass filter was preimpregnated with 0.3% PEI before the filtering and washed with 50 mM of Tris-HCl for several times after the filtering. After the filter membrane was dried, and the radioactivity of filter membrane was determined by liquid scintillation counting by using a scintillometer (Topcount, Packard). The reference standard was 5-HT, and competitive inhibition curves were plotted based on several inhibition ratios and the corresponding compound concentrations. IC50 values were calculated by non-linear regression analysis using Hill equation curves, and the Ki values were calculated from IC50 by using the ChengPrusoff equation.

Where [4] appears, read: intravenous drug delivery group, dose 1 mg/kg.
The mark [5] stands for this setting: po, gavage group, dose 2.5 mg/kg.

Structures are written as SMILES.

human 5-HT6 receptor, sequence (P50406 whole entry): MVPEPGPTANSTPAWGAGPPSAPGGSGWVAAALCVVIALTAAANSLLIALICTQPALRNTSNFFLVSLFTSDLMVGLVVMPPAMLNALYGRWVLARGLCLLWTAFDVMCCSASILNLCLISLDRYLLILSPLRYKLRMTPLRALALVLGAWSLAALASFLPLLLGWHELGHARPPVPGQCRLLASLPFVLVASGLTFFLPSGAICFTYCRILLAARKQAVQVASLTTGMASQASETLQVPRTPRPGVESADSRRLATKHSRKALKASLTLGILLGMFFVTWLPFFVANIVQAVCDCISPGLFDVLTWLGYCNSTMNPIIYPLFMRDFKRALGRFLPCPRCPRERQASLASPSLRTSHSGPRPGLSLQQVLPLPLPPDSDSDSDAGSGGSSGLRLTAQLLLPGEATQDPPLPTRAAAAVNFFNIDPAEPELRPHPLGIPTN

The term half-life denotes the time needed for the level to fall by half in the phase considered. A high value points to slow decline. The term AUC(0-inf) denotes the area under the concentration-time curve extrapolated to infinity. The low end stands for less exposure, the high end for more exposure. One may read the AUC(0-t) as the area under the concentration-time curve up to a stated or last time point. In general, Cmax refers to the highest concentration seen after dosing. As a reminder, the MRT inf is a mean duration of stay, worked out from the concentration-time curve. Usually Tmax stands for the time at which the peak concentration occurs. What is called Ki is the dissociation constant of the complex between target and ligand, obtained from inhibition or displacement. Read a low Ki as higher affinity. Regarding `O=S(=O)(c1ccccc1Cl)n1cc(C(F)F)c2c(N3CCNCC3)cccc21` [Example 3, 1-((2-chlorophenyl)sulfonyl)-3-(difluoromethyl)-4-(piperazin-1-yl)-1H-indole], in data set [1], the half-life at 1 μM was 2.2 h and the CLint scaled at 1 μM stood at 13.2 mL/min/kg. Further, in data set [2] (setting [4]), the AUC(0-inf) amounted to 2340 ng·h/mL, the AUC(0-t) was 2660 ng·h/mL, the Cmax stood at 293 ng/mL and the MRT inf was found to be 8.77 h. Also, in data set [2] (setting [4]), the time to peak (Tmax) was 8.06 h, the clearance amounted to 7.13 mL/min/kg, the half-life is 6.26 h and the Vd was determined as 3.77 L/kg. In data set [2] (setting [5]), the AUC(0-inf) was 17600 ng·h/mL, the exposure AUC(0-t) amounted to 9250 ng·h/mL, the highest level (Cmax) was 975 ng/mL and the mean residence time MRT inf amounted to 17.9 h. In addition, in data set [2] (setting [5]), the Tmax was 4.67 h and the half-life is 14.7 h. Besides, in data set [2] (gavage group, dose 2.5 mg/kg), the F is 139%. Moreover, in data set [3], the half-life at 1 μM worked out at 0.501 h and the CLint scaled at 1 μM came to 82.6 mL/min/kg. On human 5-HT6 receptor, this molecule had a Ki of 0.43 nM.

`O=S(=O)(c1cccc(Cl)c1)n1cc(C(F)F)c2c(N3CCNCC3)cccc21` [Example 6, 1-((3-chlorophenyl)sulfonyl)-3-(difluoromethyl)-4-(piperazin-1-yl)-1H-indole]: the “degradation in human liver microsomes in vitro” value in data set [1] is “almost had no degradation”. In data set [3], the half-life at 1 μM amounted to 0.591 h and the CLint scaled at 1 μM turned out to be 70 mL/min/kg. On human 5-HT6 receptor, this molecule displayed a Ki of 0.68 nM.

`O=S(=O)(c1cccc(F)c1)n1cc(C(F)F)c2c(N3CCNCC3)cccc21` [Example 5, 3-(difluoromethyl)-1-((3-fluorophenyl)sulfonyl)-4-(piperazin-1-yl)-1H-indole]: in data set [1], the “degradation in human liver microsomes in vitro” value is listed as “almost had no degradation”, the half-life at 1 μM was 3.62 h and the CLint scaled at 1 μM is 7.99 mL/min/kg. In data set [2] (setting [4]), this molecule displayed an AUC(0-inf) of 1190 ng·h/mL, an area under the curve AUC(0-t) of 1100 ng·h/mL, a maximum concentration (Cmax) of 125 ng/mL and an MRT inf of 8.77 h. In data set [2] (setting [4]), the time of peak concentration (Tmax) was found to be 0.389 h, the clearance came out at 14 mL/min/kg, the half-life was 6.49 h and the Vd was determined as 7.36 L/kg. Further, in data set [2] (po, gavage group, dose 5 mg/kg), the total exposure AUC(0-inf) amounted to 8350 ng·h/mL, the AUC(0-t) amounted to 5680 ng·h/mL, the peak concentration (Cmax) worked out at 347 ng/mL and the MRT inf is 15 h. Moreover, in data set [2] (po, gavage group, dose 5 mg/kg), the time to peak (Tmax) turned out to be 6 h and the half-life was 10.1 h. In addition, the F in data set [2] (gavage group, dose 5 mg/kg) came out at 103.21%. In addition, in data set [3], the half-life at 1 μM was 0.725 h and the CLint scaled at 1 μM was found to be 57.1 mL/min/kg. Further, on human 5-HT6 receptor, the Ki was 0.52 nM.

Consider `O=S(=O)(c1ccccc1F)n1cc(C(F)F)c2c(N3CCNCC3)cccc21` [Example 2, 3-(difluoromethyl)-1-((2-fluorophenyl)sulfonyl)-4-(piperazin-1-yl)-1H-indole], for which, in data set [1], the half-life at 1 μM was found to be 2.22 h and the CLint scaled at 1 μM came to 13.1 mL/min/kg. In data set [2] (setting [4]), this molecule showed an AUC(0-inf) of 926 ng·h/mL, an AUC(0-t) of 781 ng·h/mL, a Cmax of 106 ng/mL and an MRT inf of 8.73 h. Moreover, in data set [2] (setting [4]), the Tmax is 0.194 h, the clearance turned out to be 18.5 mL/min/kg, the half-life is 6.43 h and the Vd was 9.86 L/kg. In data set [2] (setting [5]), this molecule came in with an AUC(0-inf) of 3160 ng·h/mL, an AUC(0-t) of 2400 ng·h/mL, a Cmax of 173 ng/mL and an MRT inf of 16.8 h. In data set [2] (setting [5]), the Tmax is 3.33 h and the half-life was 11.4 h. Further, the F in data set [2] (gavage group, dose 2.5 mg/kg) was 103.67%. Moreover, in data set [3], the half-life at 1 μM was determined as 0.583 h and the CLint scaled at 1 μM amounted to 71 mL/min/kg. The affinity at human 5-HT6 receptor, expressed as Ki, was 0.46 nM.
